From patent publication US20040029905A1, “Use of weak opioids and mixed opioid agonists/antagonists for treatment of urinary incontinence” (Gruenenthal GmbH, priority 2000, published 2004)

System: anaesthetized naïve female rats
Assay: Cystometry on anaesthetized naïve rats (suppression of rhythmic spontaneous bladder contractions)
Assay type: in vivo, rat
Conditions: i.v., cumulative administration; mean of the lowest dose of 3 independent experiments at which contractions are first absent over a period of 10 min
Method: The cystometric investigation of naïve female rats was carried out by the method of Kimura et al. (Kimura et al., 1996, Int. J. Urol. 3:218-227). The abdomen of anaesthetized ventilated rats is opened up and the ureter is tied off. The urine is drained from the kidneys. A catheter is inserted into the bladder and fixed. […] After stable starting values are reached, the test substance is administered i.v. in a cumulative manner. An influence on bladder function manifests itself via suppression of spontaneous contractions. The absence of contractions over a period of 10 min is used as an indication of suppression.
A suppression of spontaneous contractions in the rats was measurable with all the substances tested. Table II indicates the mean of the lowest dose of 3 independent experiments at which for the first time contractions are absent over a period of 10 min.

Row | SMILES | Lowest dose effective for suppression of contraction
1 | CCOC(=O)[C@]1(c2ccccc2)CCC=C[C@H]1N(C)C (relative stereo) [Tilidine, trans-2-(dimethylamino)-1-phenyl-3-cyclohexene-1-carboxylic acid ethyl ester] | 0.5 (n = 3) mg/kg
2 | COc1ccc2c3c1O[C@H]1[C@@H](O)C=C[C@H]4[C@@H](C2)N(C)CC[C@@]341 [Codeine (phosphate), (5a,6a)-7,8-didehydro-4,5-epoxy-3-methoxy-17-methylmorphinan-6-ol] | 4.7 (n = 3) mg/kg
3 | CCC1(c2cccc(O)c2)CCCCN(C)C1 (stereo not drawn) [Meptazinol, 3-(3-ethylhexahydro-1-methyl-1H-azepin-3-yl)phenol] | 1.0 (n = 3) mg/kg
